Assay results as given in PubChem BioAssay (NCI).
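Protocol summary: plate cells (96-well), add compound at 5 concentrations, incubate 48 h, interpolate endpoints linearly. Here, GI50 denotes the concentration required for 50% inhibition of growth. TGI is the concentration that stops growth completely.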

Key:
Experiment in all cases: NCI tumour cell line growth inhibition, 48 h
U251 CNS = system: U251 CNS
SF-268 CNS = system: SF-268 CNS
UO-31 renal = system: UO-31 renal
MALME-3M melanoma = system: MALME-3M melanoma
SW-620 colon = system: SW-620 colon
MOLT-4 leukemia = system: MOLT-4 leukemia
DU-145 prostate = system: DU-145 prostate
SK-OV-3 ovarian = system: SK-OV-3 ovarian
CCRF-CEM leukemia = system: CCRF-CEM leukemia
NCI-H460 lung = system: NCI-H460 lung

SMILES | TGI (U251 CNS) [µM] | TGI (SF-268 CNS) [µM] | TGI (UO-31 renal) [µM] | TGI (MALME-3M melanoma) [µM] | TGI (SW-620 colon) [µM] | TGI (MOLT-4 leukemia) [µM] | TGI (DU-145 prostate) [µM] | TGI (SK-OV-3 ovarian) [µM] | TGI (CCRF-CEM leukemia) [µM] | TGI (NCI-H460 lung) [µM] | GI50 (DU-145 prostate) [µM] | GI50 (U251 CNS) [µM] | GI50 (SF-268 CNS) [µM] | GI50 (UO-31 renal) [µM] | GI50 (MALME-3M melanoma) [µM] | GI50 (SW-620 colon) [µM] | GI50 (MOLT-4 leukemia) [µM] | GI50 (SK-OV-3 ovarian) [µM] | GI50 (CCRF-CEM leukemia) [µM] | GI50 (NCI-H460 lung) [µM]
Clc1nc(-[n+]2ccc(-c3ccncc3)cc2)nc(Nc2ccccc2)c1Cl | > 100 | > 100 | > 100 | > 100 | > 100 | > 100 | > 100 | > 100 | 90.2 | > 100 | – | – | – | – | – | – | – | – | – | –
N#Cc1c(Nc2ccc(F)cc2)[n+]([O-])c2ccc(Cl)cc2[n+]1[O-] | 19.1 | 14.2 | 42.1 | > 100 | > 100 | 9.09 | > 100 | 36.7 | > 100 | 7.97 | – | – | – | – | – | – | – | – | – | –
CC(NC(=O)/C(=C/c1ccccc1O)NC(=O)c1ccccc1)C(=O)O (stereo unspecified) | > 100 | 32.9 | 34.6 | > 100 | > 100 | > 100 | > 100 | 50.2 | > 100 | 64.9 | – | – | – | – | – | – | – | – | – | –
COc1ccc(C2(c3ccc(OC)cc3)OC(=O)c3cccc4cccc2c34)cc1 | > 100 | > 100 | > 100 | > 100 | > 100 | > 100 | > 100 | > 100 | 7.71 | > 100 | – | – | – | – | – | – | – | – | – | –
C/C(=N\NC(N)=O)C(CN1CCCCC1)C(c1ccccc1)c1c(O)c2ccccc2oc1=O (stereo unspecified) | > 100 | > 100 | > 100 | > 100 | > 100 | > 94.4 | > 100 | > 100 | > 100 | > 100 | > 100 | – | – | – | – | – | – | – | – | –
CCc1nnc(-n2c(C)nc3cc(Cl)ccc3c2=O)s1 | > 100 | > 100 | > 100 | 93.1 | > 100 | > 100 | > 100 | > 100 | 56.7 | > 100 | – | – | – | – | – | – | – | – | – | –
N#Cc1c(NC(=O)c2ccccc2)sc2c1CCC(=O)C2 | 16.9 | 38.4 | 2.24 | 3.92 | 3.69 | > 100 | > 100 | 14.7 | > 100 | > 100 | 2.98 | 1.52 | 2.59 | 1.05 | 1.65 | 0.524 | 1.2 | 2.33 | 0.43 | 2.22
C/C(=C/CO[Si](C)(C)C(C)(C)C)C(=O)N(C)c1ccccc1I | 28.6 | 33.4 | 28 | 28.3 | 35.8 | 72.9 | 36.7 | 35.5 | 43 | 30 | – | – | – | – | – | – | – | – | – | –
CC1=C(C(=O)OCCc2ccc([N+](=O)[O-])cc2)C(c2ccccc2[N+](=O)[O-])C(C(=O)OC(C)C)=C(C)N1 (stereo unspecified) | > 100 | > 100 | > 100 | > 100 | > 100 | 9.93 | > 100 | > 100 | 23.2 | > 100 | – | – | – | – | – | – | – | – | – | –
O=C(O)/C=C(/CC(=O)O)C(=O)O | 41.2 | 40 | 33.7 | 37.3 | 39.8 | 38.4 | 45.7 | 47.6 | 37.2 | > 100 | – | – | – | – | – | – | – | – | – | –
Cc1cc2ccccc2n1CC(=O)NCC(C)C | > 100 | > 100 | > 100 | > 100 | > 100 | > 100 | > 100 | > 100 | > 100 | > 100 | – | – | – | – | – | – | – | – | – | –
COC(=O)c1ccc(-c2nc(C#N)c(N)o2)cc1 | > 100 | > 100 | > 100 | > 100 | > 100 | > 100 | > 100 | > 100 | > 100 | > 100 | – | – | – | – | – | – | – | – | – | –
CCCn1c(C23CC4CC(CC(C4)C2)C3)nc2ccc(Cl)cc2c1=O | > 100 | > 100 | 39.5 | > 100 | > 100 | > 100 | 95.9 | > 100 | > 100 | > 100 | – | – | – | – | – | – | – | – | – | –
